According to patent US9657092B2, “S100A4 antibodies and therapeutic uses thereof” (LYKERA BIOMED SA, priority 2010, dated 2017):

Tested on: MiaPACA-2 cells
Test: Cytotoxic effect measured by hexosaminidase activity
Format: cell-based
Settings: Homo sapiens, MIA PaCa-2; gemcitabine alone, 72 h; read-out: EC50 cell viability
Protocol: Briefly, MiaPACA-2 cells were plated onto 96-well cell culture plates (5×10^3 cells/well) in 50 μl of DMEM medium. […] After removing the culture media cells were washed once with PBS. Sixty microliters of substrate solution (p-nitrophenol-N-acetyl-beta-D-glucosamide 7.5 mM, sodium citrate 0.1 M, 0.25% Triton X-100, pH 5.0) was added to each well and plates were incubated at 37° C. for 2 hours; after this incubation time, a bright yellow appears and plates were developed by adding 90 μl of developer solution (Glycine 50 mM, EDTA 5 mM, pH 10.4), and the absorbance at 450 nm was measured by using a multi-well scanning spectrophotometer. Data analysis was done normalizing the results with the negative control (untreated cells) which were considered as 100% of viability.
Curves were adjusted using a sigmoidal dose-response (variable slope) equation, and EC50 values were obtained from the equation: Y=Bottom+(Top−Bottom)/(1+10^((Log EC50−X)*HillSlope)) where X is the logarithm of concentration and Y is the response. Y starts at Bottom and goes to Top with a sigmoid shape.

## Nc1ccn([C@@H]2O[C@H](CO)[C@@H](O)C2(F)F)c(=O)n1 [gemcitabine]
  EC50: 8.36 nM
